A word on the IC50: it is the concentration needed to halve the response being measured. The low end stands for greater potency, the high end for weaker potency. One may read the melting point as the temperature, or range, at which the solid turns liquid. Broadly, the Km is the concentration of substrate that gives half-maximal velocity.

Consider 20 compounds from patent US7550465B2, “Pyrido[3,2-e]pyrazines, their use as inhibitors of phosphodiesterase 10, and processes for preparing them” (Elbion GmbH, priority 2006, dated 2009).

A value given as a limit tells only on which side of the number the result lay.

Series [1] addresses PDE10 from pig striatum (Sus scrofa, UniProt A0A287B941). In words: Inhibition of PDE10 from pig striatum ([3H]-cAMP SPA). The format is biochemical. Particulars: for IC50: pig striatum preparation, 0.1 μM [3H]-cAMP, 37° C., 30 minutes. The method, then:
(§1) Phosphodiesterase isoenzyme 10 (PDE10) activity was determined in preparations of rat, pig and guinea pig striatum respectively. Striatum from male Wistar rats (180-200 g), male hybrid pigs (150 kg) and male guinea pigs (CRL (HA), 500 g) respectively were collected and frozen at −70° C.
(§2) For the enzymatic testing of PDE10 activity 0.5 g of the isolated and frozen striatum was homogenised in 10 ml 50 mM Tris/Mg-buffer at 4° C. and centrifuged for one hour at 100000 g.
(§3) Nonspecific activity was tested without the enzyme. […] For determination of IC50 values the Hill-plot, 2-parameter-model, was used.

Series [2] relates to MK-801-induced hyperactivity and stereotyped sniffing. Kind of series: MK-801-induced psychosis (hyperactivity and stereotyped sniffing). The class given is in vivo, rat. Particulars: p.o., 30 min before test (Example 30: 60 min), female Wistar rats, MK-801 0.1 mg/kg i.p. 10 min before, vs MK-801 control; for dose significantly reversing MK-801-induced hyperactivity: activity recorded 1 h; for dose significantly reversing MK-801-induced stereotyped sniffing: scored 1 h. The protocol:
Female Wistar rats (Crl: (WI) BR, Charles River, Sulzfeld, Germany) weighing 150 to 180 g were used for the MK-801-induced psychosis. Animals were housed under standard conditions in groups of five on a 12 h light/dark cycle (light on at 0600 h) with ad libitum access to food (Pellets, ssniff M/R 15, Spezialdiät GmbH, Soest/Westfalen) and
Hydroxyethylcellulose was solved in distilled water.
MK-801 was solved in saline so that an administration volume of 0.5 ml/100 g was reached. The suspensions and solution were placed on a magnetic stirrer before and during dosing procedures.
The behaviour induced by the NMDA antagonist MK-801 is generally accepted as a rat model of psychosis. MK-801 induces stereotyped sniffing, hyperactivity and ataxia in rats after intraperitoneal administration.
Locomotor activity of the rats was recorded by the MotiTest Apparatus (TSE, Bad Homburg, Germany). The test area consisted of a squared arena (45×45 cm) with protective plexiglass walls (20 cm of height) where rats could freely move. Horizontal movements were recorded by 32 infrared photocells arranged along the bottom of each wall of the arena. The activity [sec] was measured by the computer program “ActiMot” (TSE, Bad Homburg, Germany).
Stereotyped sniffing was scored by the experimenter every five minutes for one hour (12 intervals) according to the method described by Andiné et al. (1999). The scores of the 12 intervals were summed up at the end of the recording time.
The day of experiment the female rats were placed in the laboratory and received the test compound or vehicle at the appropriate time prior to test. MK-801 0.1 mg/kg was intraperitoneally administered 10 minutes prior to test.
At the beginning of the test the rats were placed in the centre of the squared arena of the MotiTest apparatus. Behaviour of the rats was recorded for one hour. After each run animals were removed and the boxes thoroughly cleaned and dried.
Results were analysed by one way analysis of variance (ANOVA). Tukey test was used for individual comparison. P<0.05 was regarded as significant.

Series [3] deals with PDE10 from guinea pig striatum (Cavia porcellus, UniProt A0A286XN47). In words: Inhibition of PDE10 from guinea pig striatum ([3H]-cAMP SPA). The format is biochemical. Particulars: guinea pig striatum preparation; 0.1 μM [3H]-cAMP; 37° C., 30 minutes. The protocol: as §1, §2, §3
The target of series [4] is T1, PDE10 from rat striatum (Rattus norvegicus, UniProt Q9QYJ6).
T1 construct: from tissue; host or cells: rat striatum (male Wistar rats), homogenate fractions enriched on HiTrap Q HP
T1 sequence (Q9QYJ6 1-794): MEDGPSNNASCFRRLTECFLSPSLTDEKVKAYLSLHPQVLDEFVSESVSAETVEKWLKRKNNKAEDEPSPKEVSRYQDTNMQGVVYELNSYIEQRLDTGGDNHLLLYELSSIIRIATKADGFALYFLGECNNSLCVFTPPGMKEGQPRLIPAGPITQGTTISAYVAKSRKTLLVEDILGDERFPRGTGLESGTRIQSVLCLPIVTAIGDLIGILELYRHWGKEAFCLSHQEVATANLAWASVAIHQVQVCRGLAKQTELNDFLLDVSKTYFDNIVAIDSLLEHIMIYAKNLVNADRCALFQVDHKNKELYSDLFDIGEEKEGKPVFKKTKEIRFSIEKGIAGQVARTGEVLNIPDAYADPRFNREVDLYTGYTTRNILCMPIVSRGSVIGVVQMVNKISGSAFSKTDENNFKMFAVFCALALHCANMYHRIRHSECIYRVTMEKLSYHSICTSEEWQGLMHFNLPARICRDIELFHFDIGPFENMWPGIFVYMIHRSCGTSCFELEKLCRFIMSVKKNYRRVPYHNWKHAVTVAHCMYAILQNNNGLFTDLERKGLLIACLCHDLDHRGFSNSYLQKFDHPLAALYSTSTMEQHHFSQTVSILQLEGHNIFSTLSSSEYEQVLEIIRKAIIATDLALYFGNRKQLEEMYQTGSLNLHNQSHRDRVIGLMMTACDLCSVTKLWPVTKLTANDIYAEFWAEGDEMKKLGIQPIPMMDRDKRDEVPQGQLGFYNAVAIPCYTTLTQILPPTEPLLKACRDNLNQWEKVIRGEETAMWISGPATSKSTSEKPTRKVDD
Kind of series: Inhibition of PDE10 from rat striatum ([3H]-cAMP SPA). The format is biochemical. Particulars: substrate of the enzyme preparation. The protocol:
as §1, §2, §3

Sequence of PDE10 from guinea pig striatum (A0A286XN47 1-773): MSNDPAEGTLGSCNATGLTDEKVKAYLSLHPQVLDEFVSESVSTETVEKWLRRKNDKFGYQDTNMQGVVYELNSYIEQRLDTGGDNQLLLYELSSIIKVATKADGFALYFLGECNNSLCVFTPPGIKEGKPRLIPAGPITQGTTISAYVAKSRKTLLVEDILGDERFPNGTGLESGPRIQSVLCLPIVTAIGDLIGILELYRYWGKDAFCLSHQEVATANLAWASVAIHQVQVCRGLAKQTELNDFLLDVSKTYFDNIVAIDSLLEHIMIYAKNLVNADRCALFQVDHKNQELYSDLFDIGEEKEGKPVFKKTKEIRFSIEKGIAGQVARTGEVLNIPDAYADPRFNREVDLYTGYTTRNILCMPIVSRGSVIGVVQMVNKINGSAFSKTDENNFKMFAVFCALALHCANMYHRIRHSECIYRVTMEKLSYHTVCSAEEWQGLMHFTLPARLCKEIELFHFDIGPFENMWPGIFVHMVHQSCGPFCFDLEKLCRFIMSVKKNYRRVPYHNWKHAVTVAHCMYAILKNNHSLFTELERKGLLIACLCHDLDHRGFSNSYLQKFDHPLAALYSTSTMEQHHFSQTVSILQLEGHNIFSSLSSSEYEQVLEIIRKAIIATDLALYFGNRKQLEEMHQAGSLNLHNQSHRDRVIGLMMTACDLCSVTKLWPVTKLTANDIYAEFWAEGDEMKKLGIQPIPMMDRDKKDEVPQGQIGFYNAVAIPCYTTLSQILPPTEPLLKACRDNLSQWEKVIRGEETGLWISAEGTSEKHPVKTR

“1-propyl-4,8-dimethyl-imidazo[1,5-a]pyrido[3,2-e]pyrazine [Example 53]” had an IC50 in series [1] of 43 nM. For the compound “3,4-dimethyl-8-(piperidin-1-yl)-methoxy-1-propyl-imidazo[1,5-a]pyrido[3,2-e]pyrazine [Example 55]”, in series [2], the “dose significantly reversing MK-801-induced hyperactivity” value came to 30 mg/kg and the “dose significantly reversing MK-801-induced stereotyped sniffing” value came to 30 mg/kg.

In the case of “4-cyano-8-methoxy-3-methyl-1-ethyl-imidazo[1,5-a]pyrido[3,2-e]pyrazine [Example 30]”, in series [2], the “dose significantly reversing MK-801-induced hyperactivity” value is listed as at least 10 mg/kg and the “dose significantly reversing MK-801-induced stereotyped sniffing” value is listed as at least 10 mg/kg. Consider “8-methoxy-3-methyl-1-propyl-imidazo[1,5-a]pyrido[3,2-e]pyrazine [Example 35]”, for which, in series [2], the “dose significantly reversing MK-801-induced hyperactivity” value is reported as 30 mg/kg and the “dose significantly reversing MK-801-induced stereotyped sniffing” value is at least 30 mg/kg. The matching figures for “8-methoxy-4-methoxycarbonylamino-3-methyl-1-propyl-imidazo[1,5-a]pyrido[3,2-e]pyrazine [Example 62]”: 5 mg/kg and 5 mg/kg. For `CCCN1CC=C(OC)C2=C1N1CN(OC)C=C1C=N2` [Example 2, 4,8-dimethoxy-1-propyl-imidazo[1,5-a]pyrido[3,2-e]pyrazine], the melting point was 113 to 116 °C. Compound `CCCOC1=C(C)CN(CC)C2=C1N=CC1=CN(OC)CN12` [Example 7, 1-ethyl-8-methoxy-3-methyl-4-propyloxy-imidazo[1,5-a]pyrido[3,2-e]pyrazine] registered a melting point of 78 to 81 °C. In turn, `CCCN1CC(C)=C(OC(C)C)C2=C1N1CN(OC)C=C1C=N2` [Example 9, 4-isopropyloxy-8-methoxy-3-methyl-1-propyl-imidazo[1,5-a]pyrido[3,2-e]pyrazine] came in with a melting point of 78 to 80 °C. Turning to `CCCN1CC(C)=C(SC)C2=C1N1CN(OC)C=C1C=N2` [Example 26, 8-methoxy-3-methyl-4-methylthio-1-propyl-imidazo[1,5-a]pyrido[3,2-e]pyrazine], the melting point lay in the range of 112 to 115 °C. For `CCCc1nc(C)c2c(C#N)nc3ccc(OC)nc3n12` [Example 29, 4-cyano-8-methoxy-3-methyl-1-propyl-imidazo[1,5-a]pyrido[3,2e]pyrazine], it took 18 nM to reach half-maximal inhibition in series [3] (IC50). The “dose significantly reversing MK-801-induced stereotyped sniffing” value in series [2] is given as at least 5 mg/kg. `CCN1CC(C)=C([S+](C)[O-])C2=C1N1CN(OC)C=C1C=N2` (centres unmarked) [Example 34, 1-ethyl-8-methoxy-3-methyl-4-methylsulfinyl-imidazo[1,5-a]pyrido[3,2-e]pyrazine] yielded a melting point of 189 to 192 °C. For `CCN1CC(C)=CC2=C1N1CN(OC)C=C1C=N2` [Example 36, 1-ethyl-8-methoxy-3-methyl-imidazo[1,5-a]pyrido[3,2-e]pyrazine], the melting point is 159 to 162 °C. Regarding `CCCN1CC(C)=C(C)C2=C1N1CN(C)C=C1C=N2` [Example 51, 1-propyl-3,4,8-trimethyl-imidazo[1,5-a]pyrido[3,2-e]pyrazine], the melting point was in the range of 104 to 107 °C. Turning to `CCCc1nc(C)c2c(NS(=O)(=O)C(F)(F)F)nc3ccc(OC)nc3n12` [Example 73, 8-methoxy-3-methyl-1-propyl-4-trifluoromethylsulfonylamino-imidazo[1,5a]pyrido[3,2-e]pyrazine], the IC50 in series [1] stood at 19 nM. `CCCN1CC(C)=C(NS(=O)(=O)CCC)C2=C1N1CN(OC)C=C1C=N2` [Example 74, 8-methoxy-3-methyl-1-propyl-4-propylsulfonylamino-imidazo[1,5-a]pyrido[3,2-e]pyrazine] showed a melting point of 203 to 206 °C.

For `CCCN1CC(C)=C(NS(=O)(=O)c2ccc(C)cc2)C2=C1N1CN(OC)C=C1C=N2` [Example 76, 8-methoxy-3-methyl-4-(4-methylphenylsulfonylamino)-1-propyl-imidazo[1,5-a]pyrido[3,2-e]pyrazine], the melting point is 229 to 232 °C. Consider `CCCN1CC(C)=C(N(S(=O)(=O)c2ccc(C)cc2)S(=O)(=O)c2ccc(C)cc2)C2=C1N1CN(OC)C=C1C=N2` [Example 77, 4-[N,N-bis-(4-methylphenylsulfonyl)-amino]-8-methoxy-3-methyl-1-propyl-imidazo[1,5-a]pyrido[3,2-e]pyrazine], for which the melting point lay in the range of 206 to 209 °C. Compound `CON1C=C2C=NC3=C(N(CCC(F)(F)F)CC(C)=C3NS(C)(=O)=O)N2C1` [Example 78, 8-methoxy-3-methyl-1-(3,3,3-trifluoropropyl)-4-methylsulfonylamino-imidazo[1,5-a]pyrido[3,2-e]pyrazine] had a melting point of 250 to 253 °C.

With `CON1C=C2C=NC3=C(N2C1)N(c1ccccc1)CC(C)=C3NS(C)(=O)=O` [Example 81, 8-methoxy-3-methyl-1-phenyl-4-methylsulfonylamino-imidazo[1,5-a]pyrido[3,2-e]pyrazine], the melting point lay in the range of 217 to 220 °C. Turning to `Nc1nc2c(ncn2[C@@H]2O[C@@H]3COP(=O)(O)O[C@H]3[C@H]2O)c(=O)[nH]1` [cGMP], the figures for the Km in series [4] and in series [1] (substrate of the enzyme preparation) were 1.8 µM and 2.2 µM, respectively.
